Data published in patent US8492543B2, “Method for producing quinazoline derivative” (Eisai R&D Management Co., Ltd., priority 2007, dated 2013).
Like-named read-outs stand apart in the source and are kept apart here.

Tests used:
CYP1A1 = conditions: human, hepatocytes
Procedure: Cryopreserved human hepatocytes (XenoTeck) were rapidly thawed at 37° C., and viable cells were obtained using Hepatocytes Isolation Kit (Nosan Corporation). After cells prepared were diluted with ice cold William's Medium E (10% FBS, +PSG) to give a concentration of 5×10^5 viable cells/mL, the cells were seeded onto a 48-well collagen-coated plate (BD Biosciences) at a concentration of 1×10^5 cells/cm^2 and cultured at 37° C. in 5% CO2 for 24 hours. Then, the medium was replaced with Hepato-STIM (registered trade mark: BD Biosciences) (+EGF, PSG, −FBS), and the cells were further cultured at 37° C. in 5% CO2 for 24 hours. […] The culture medium containing test compound, β-NF or Rif was replaced every 24 hours. Test compound, β-NF and Rif were each dissolved in dimethyl sulfoxide (DMSO: Wako Pure Chemical Industries, Ltd.), and culture medium containing test compound (final concentrations; 1, 3 and 10 μM), β-NF (final concentration; 10 μM) or Rif (final concentration; 10 μM) was prepared by adding them to Hepato-STIM(+EGF, PSG, −FBS), respectively. Final concentration of DMSO was set to be 0.1%, and culture medium containing 0.1% DMSO was used for control. […] The levels of mRNA for CYP1A1 and GAPDH were quantified using SYBR Green PCR Core Reagents Kit (Applied Biosystems), and those for CYP1A2 and that of CYP3A4 were measured using Taqman PCR Core Reagents Kit (Applied Biosystems) and ABI Prism 7900 Sequence Detection System (Applied Biosystems).
(§1) The ability of a test compound to induce CYP1A1 was calculated as follows: Ability of a test compound to induce CYP1A1(%)={[(amount of mRNA of CYP1A1 in test compound treated cells)/(amount of mRNA of GAPDH in test compound treated cells)]/[(amount of mRNA of CYP1A1 in control cells)/(amount of mRNA of GAPDH in control cells)]−1}/{[(amount of mRNA of CYP1A1 in positive control treated cells)/(amount of mRNA of GAPDH in positive control treated cells)]/[(amount of mRNA of CYP1A1 in control cells)/(amount of mRNA of GAPDH in control cells)]−1}×100

CYP1A2 [1] = conditions: human, hepatocytes
Procedure: (§2) Cryopreserved human hepatocytes (XenoTeck) were rapidly thawed at 37° C., and viable cells were obtained using Hepatocytes Isolation Kit (Nosan Corporation). After cells prepared were diluted with ice cold William's Medium E (10% FBS, +PSG) to give a concentration of 5×10^5 viable cells/mL, the cells were seeded onto a 48-well collagen-coated plate (BD Biosciences) at a concentration of 1×10^5 cells/cm^2 and cultured at 37° C. in 5% CO2 for 24 hours. Then, the medium was replaced with Hepato-STIM (registered trade mark: BD Biosciences) (+EGF, PSG, −FBS), and the cells were further cultured at 37° C. in 5% CO2 for 24 hours. […] The culture medium containing test compound, β-NF or Rif was replaced every 24 hours. Test compound, β-NF and Rif were each dissolved in dimethyl sulfoxide (DMSO: Wako Pure Chemical Industries, Ltd.), and culture medium containing test compound (final concentrations; 1, 3 and 10 μM), β-NF (final concentration; 10 μM) or Rif (final concentration; 10 μM) was prepared by adding them to Hepato-STIM(+EGF, PSG, −FBS), respectively. Final concentration of DMSO was set to be 0.1%, and culture medium containing 0.1% DMSO was used for control. After completion of the treatment, the cells were washed with PBS once, and total RNA was purified using Total RNA Purification Kit (Applied Biosystems). The purified total RNA was subjected to reverse transcription reaction using TaqMan Reverse Transcription Reagents (Applied Biosystems) to synthesize cDNA, where oligo dT was used as a primer. The reaction was carried out using Gene Amp PCR system 9700 at 25° C. for 10 minutes, followed by at 48° C. for 60 minutes. Then, reverse transcriptase was deactivated at 95° C. for 10 minutes. The levels of mRNA for CYP1A1 and GAPDH were quantified using SYBR Green PCR Core Reagents Kit (Applied Biosystems), and those for CYP1A2 and that of CYP3A4 were measured using Taqman PCR Core Reagents Kit (Applied Biosystems) and ABI Prism 7900 Sequence Detection System (Applied Biosystems).
as §1
(§3) The ability to induce CYP1A2 or CYP3A4 was calculated in the same manner described above.

CYP3A4 = assay: Induction potency of drug metabolizing enzyme (CYP) using cryopreserved human hepatocytes: CYP3A4 mRNA; conditions: approx. 48 hours, mRNA relative to Rif 10 μM
Procedure: Cryopreserved human hepatocytes (XenoTeck) were rapidly thawed at 37° C., and viable cells were obtained using Hepatocytes Isolation Kit (Nosan Corporation). After cells prepared were diluted with ice cold William's Medium E (10% FBS, +PSG) to give a concentration of 5×10^5 viable cells/mL, the cells were seeded onto a 48-well collagen-coated plate (BD Biosciences) at a concentration of 1×10^5 cells/cm^2 and cultured at 37° C. in 5% CO2 for 24 hours. Then, the medium was replaced with Hepato-STIM (registered trade mark: BD Biosciences) (+EGF, PSG, −FBS), and the cells were further cultured at 37° C. in 5% CO2 for 24 hours. […] The culture medium containing test compound, β-NF or Rif was replaced every 24 hours. Test compound, β-NF and Rif were each dissolved in dimethyl sulfoxide (DMSO: Wako Pure Chemical Industries, Ltd.), and culture medium containing test compound (final concentrations; 1, 3 and 10 μM), β-NF (final concentration; 10 μM) or Rif (final concentration; 10 μM) was prepared by adding them to Hepato-STIM(+EGF, PSG, −FBS), respectively. […] The levels of mRNA for CYP1A1 and GAPDH were quantified using SYBR Green PCR Core Reagents Kit (Applied Biosystems), and those for CYP1A2 and that of CYP3A4 were measured using Taqman PCR Core Reagents Kit (Applied Biosystems) and ABI Prism 7900 Sequence Detection System (Applied Biosystems).
as §1, §3

CYPs = assay: Induction potency on CYPs, overall statement (cryopreserved human hepatocytes); conditions: CYP1A1, CYP1A2, CYP3A4; 1, 3 and 10 μM
Procedure: Cryopreserved human hepatocytes (XenoTeck) were rapidly thawed at 37° C., and viable cells were obtained using Hepatocytes Isolation Kit (Nosan Corporation). After cells prepared were diluted with ice cold William's Medium E (10% FBS, +PSG) to give a concentration of 5×10^5 viable cells/mL, the cells were seeded onto a 48-well collagen-coated plate (BD Biosciences) at a concentration of 1×10^5 cells/cm^2 and cultured at 37° C. in 5% CO2 for 24 hours. Then, the medium was replaced with Hepato-STIM (registered trade mark: BD Biosciences) (+EGF, PSG, −FBS), and the cells were further cultured at 37° C. in 5% CO2 for 24 hours. […] The culture medium containing test compound, β-NF or Rif was replaced every 24 hours. […] The levels of mRNA for CYP1A1 and GAPDH were quantified using SYBR Green PCR Core Reagents Kit (Applied Biosystems), and those for CYP1A2 and that of CYP3A4 were measured using Taqman PCR Core Reagents Kit (Applied Biosystems) and ABI Prism 7900 Sequence Detection System (Applied Biosystems). […]
as §3

CYP1A2 [2] = assay: Induction potency of drug metabolizing enzyme (CYP) using cryopreserved human hepatocytes: CYP1A2 mRNA; conditions: 10 μM, approx. 48 hours, mRNA relative to β-NF 10 μM
Procedure: as §2, §1, §3

Question: Which results are given for `COc1cc2nc(Cl)nc(-c3cccc(NC(=O)OC(C)(C)C)c3)c2cc1OC` [Example 1, t-butyl [3-(2-chloro-6,7-dimethoxyquinazolin-4-yl)phenyl]carbamate]?
Answer: Induction Ability compared to positive control (%) CYP1A1 (CYP1A1; 1 μM): 0.1%; Induction Ability compared to positive control (%) CYP1A1 (CYP1A1; 3 μM): 0.6%; Induction Ability compared to positive control (%) CYP1A1 (CYP1A1; 10 μM): 4.6%; Induction Ability compared to positive control (%) CYP1A2 (CYP1A2 [1]; 1 μM): −0.1%; Induction Ability compared to positive control (%) CYP1A2 (CYP1A2 [1]; 3 μM): −0.7%; Induction Ability compared to positive control (%) CYP1A2 (CYP1A2 [1]; 10 μM): 2.5%; Induction Ability compared to positive control (%) CYP3A4 (CYP3A4; 1 μM): −2.4%; Induction Ability compared to positive control (%) CYP3A4 (CYP3A4; 3 μM): −3.4%; Induction Ability compared to positive control (%) CYP3A4 (CYP3A4; 10 μM): −4.0%

Question: `CNc1nc(-c2cccc(NC(=O)c3ccc(C(=O)OC)cc3)c2)c2cc(OC)c(OC)cc2n1` [Example 10, methyl N-[3-(6,7-dimethoxy-2-methylaminoquinazolin-4-yl)phenyl]terephthalamic acid] was tested. Which “induction potency on CYPs compared with the comparative example” value (CYPs) did it give?
Answer: Its value is “lower induction potency on CYPs than the compound of the comparative example”.

Question: With `O=c1cc(-c2ccccc2)oc2ccc3ccccc3c12` [β-naphthof lavone, β-naphthoflavone] as the molecule, how does the “Induction Ability compared to positive control (%) CYP1A2” value (CYP1A2 [2]) read?
Answer: Its value is 100.0%.
